# Values quoted from earlier work as cited in patent publication US20150313904A1 (Teva Pharmaceuticals Ltd., priority 2014, published 2015).
# System: Crohn's disease patients
# Conditions: azathioprine-treated patients; Summers et al. 1979
compound,measurement,value
Cn1cnc([N+](=O)[O-])c1Sc1ncnc2nc[nH]c12 [azathioprine],time of maximum decrease in the mean CDAI score,9 weeks
